Where two headings read alike, the source gives them in different places.
What was measured:
GAL4-hERβ = molecular target: T1, GAL4-hERβ (Homo sapiens, UniProt Q92731); test: Transactivation assay for estrogen activity, GAL4-hERβ LBD chimeric receptor with (UAS)4-alkaline phosphatase reporter in CHO-K1 cells; format: cell-based; settings: for EC50: CHO-K1 cells, ALP reporter, read-out: EC50 value for ERβ (converted); for maximal activation of ERβ: at the concentration of maximal activation (compound 2: 40 μg/mL; compound 6: 20 μg/mL); for ALP activity with increasing concentration, GAL4-hERβ / concentration at which the maximal activation of ERβ is achieved: dose response curve
T1 construct: GAL4hERα (or β) LBD chimeric receptors; expressed in transfected cells; host or cells: CHO-K1 (CCRC 60006), transient co-transfection with Fugene 6
T1 sequence (Q92731 264-498 limits assumed): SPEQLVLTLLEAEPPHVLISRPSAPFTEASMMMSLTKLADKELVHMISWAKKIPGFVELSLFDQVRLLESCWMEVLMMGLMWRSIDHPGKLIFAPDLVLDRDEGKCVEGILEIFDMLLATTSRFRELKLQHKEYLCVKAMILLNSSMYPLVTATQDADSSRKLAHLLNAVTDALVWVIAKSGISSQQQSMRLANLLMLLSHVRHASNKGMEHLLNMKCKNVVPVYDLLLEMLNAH
Text: (§1) To evaluate the estrogen activity, the pBKCMV plasmid containing the gene of GAL4hERα (or β) LBD chimeric receptors was co-transfected with a plasmid containing the (UAS)4-alkaline phosphatase reporter gene into CHO-K1 cells. When a test sample was reacted with ER, the GAL4 was mediated to bind specifically with the UAS upstream of the reporter gene so as to activate the expression of the reporter gene, i.e. the alkaline phosphatase (ALP) enzyme. By measuring the alkaline phosphatase activity, we can detect the estrogen activity of the sample.
(§2) Cells were grown to confluence and seeded into 96-well microplates for a day. Before transfection, the two plasmids DNA in equal proportions were added to a mixture of the Fugene 6 transfection reagent and Ham's F12 medium, and then incubated for 20 min. At transfection, the fugene 6-DNA mixture was then added to the cells after the original FBS containing medium was removed.
(§3) After a 2-day culture, an aliquot of the medium was taken for the analysis of alkaline phosphatase activity.

GAL4-hERα = molecular target: T2, GAL4-hERα (Homo sapiens, UniProt P03372); test: Transactivation assay for estrogen activity, GAL4-hERα LBD chimeric receptor with (UAS)4-alkaline phosphatase reporter in CHO-K1 cells; format: cell-based; settings: for EC50: CHO-K1 cells, ALP reporter, read-out: EC50 value for ERα (converted); for maximal activation of ERα: at the concentration of maximal activation (compound 2: 40 μg/mL; compound 6: 20 μg/mL); for ALP activity with increasing concentration, GAL4-hERα / concentration at which the maximal activation of ERα is achieved: dose response curve
T2 construct: GAL4hERα (or β) LBD chimeric receptors; expressed in transfected cells; host or cells: CHO-K1 (CCRC 60006), transient co-transfection with Fugene 6
T2 sequence (P03372 311-547 limits assumed): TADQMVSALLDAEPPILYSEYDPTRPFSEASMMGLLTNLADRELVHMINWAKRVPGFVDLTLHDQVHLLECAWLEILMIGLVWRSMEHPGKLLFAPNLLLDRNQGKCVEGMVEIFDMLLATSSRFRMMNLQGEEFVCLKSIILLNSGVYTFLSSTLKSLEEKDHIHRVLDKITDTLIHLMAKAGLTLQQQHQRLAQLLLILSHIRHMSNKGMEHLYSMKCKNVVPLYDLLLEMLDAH
Text: as §1, §2, §3

[1] = three concentrations, fraction with compound 5

Row | EC50 (GAL4-hERβ) [µM] | EC50 (GAL4-hERβ; value in parentheses) [µM] | maximal activation of ERβ (GAL4-hERβ) [fold] | ALP activity with increasing concentration, GAL4-hERβ (GAL4-hERβ) | concentration at which the maximal activation of ERβ is achieved (GAL4-hERβ) [µg/mL] | concentration at which the maximal activation of ERβ is achieved (GAL4-hERβ; value in parentheses) [µM] | EC50 (GAL4-hERα) [µM] | EC50 (GAL4-hERα; value in parentheses) [µM] | maximal activation of ERα (GAL4-hERα) [fold] | ALP activity with increasing concentration, GAL4-hERα (GAL4-hERα) | concentration at which the maximal activation of ERα is achieved (GAL4-hERα) [µg/mL] | concentration at which the maximal activation of ERα is achieved (GAL4-hERα; value in parentheses) [µM] | Compound | ALP activity, activation of GAL4-hERβ (GAL4-hERβ; [1]) | ALP activity, activation of GAL4-hERα (GAL4-hERα; [1])
1 | 3.19 | 3.2 | 3.26 | dose-dependent increase | 20 | 26.64 | 12.7 | 12.7 | 2.91 | dose-dependent increase | 20 | 26.64 | CC(C)=CCC/C(C)=C/CC/C(C)=C/CC/C(C)=C/CC/C(C)=C/CC/C(C)=C/CC/C(C)=C/CC/C(C)=C/CC[C@]1(C)CCc2cc(O)c(C)c(C)c2O1 [compound 6, γ-tocopherol-9] | – | –
2 | 1.06 | 1.06 | – | dose-dependent increase | 20 | 25.2 | 51 | 13.3 | – | dose-dependent increase | 20 | 25.2 | COC1=C(OC)C(=O)C(C/C=C(\C)CC/C=C(\C)CC/C=C(\C)CC/C=C(\C)CC/C=C(\C)CC/C=C(\C)CC/C=C(\C)CC/C=C(\C)CCC=C(C)C)=C(C)C1=O [compound 3, coenzyme Q9] | – | –

More lines, now with the values behind:

Row | Compound | EC50 (GAL4-hERβ) [µM] | EC50 (GAL4-hERβ; value in parentheses) [µM] | maximal activation of ERβ (GAL4-hERβ) [fold] | ALP activity with increasing concentration, GAL4-hERβ (GAL4-hERβ) | concentration at which the maximal activation of ERβ is achieved (GAL4-hERβ) [µg/mL] | concentration at which the maximal activation of ERβ is achieved (GAL4-hERβ; value in parentheses) [µM] | EC50 (GAL4-hERα) [µM] | EC50 (GAL4-hERα; value in parentheses) [µM] | maximal activation of ERα (GAL4-hERα) [fold] | ALP activity with increasing concentration, GAL4-hERα (GAL4-hERα) | concentration at which the maximal activation of ERα is achieved (GAL4-hERα) [µg/mL] | concentration at which the maximal activation of ERα is achieved (GAL4-hERα; value in parentheses) [µM] | ALP activity, activation of GAL4-hERβ (GAL4-hERβ; [1]) | ALP activity, activation of GAL4-hERα (GAL4-hERα; [1])
3 | COc1cc(/C=C/C(=O)OCC(O)CO)ccc1O (stereo not shown) [compound 5, 1-feruloyl glycerol] | – | – | – | – | – | – | – | – | – | – | – | – | significant increases in the ALP activity | significant increases in the ALP activity
4 | Cc1c(C)c2c(c(C)c1O)CC[C@@](C)(CCC[C@H](C)CCC[C@H](C)CCCC(C)C)O2 [compound 1, RRR-α-tocopherol] | 9.19 | 9.2 | – | – | – | – | 2.51 | 2.5 | – | – | – | – | – | –
5 | COc1c(O)c(C)c2c(c1OC)O[C@](C)(CC/C=C(\C)CC/C=C(\C)CC/C=C(\C)CC/C=C(\C)CC/C=C(\C)CC/C=C(\C)CC/C=C(\C)CCC=C(C)C)C=C2 [compound 2, hydro-Q9 chromene] | 7.36 | 7.4 | 3.79 | dose-dependent increase | 40 | 50.34 | 10.7 | 10.8 | 3.68 | dose-dependent increase | 40 | 50.34 | – | –
